Results: US12454534B2, “Pyrrolo[2,3-b]pyrazines as HPK1 inhibitor and the use thereof” (BEIGENE, LTD., priority 2019, dated 2025)

Experiments:
[1] = target: T1, HPK1 kinase (aa1-346, Life Technologies) (Homo sapiens, UniProt Q92918); experiment: HPK1 Kinase Activity Assay at 1 mM ATP (TR-FRET); format: biochemical; settings: HPK1 40 nM, read-out: Enzymatic activity IC50
T1 construct: HPK1 kinase (aa1-346, Life Technologies); purchased Life Technologies
T1 sequence (Q92918 1-346): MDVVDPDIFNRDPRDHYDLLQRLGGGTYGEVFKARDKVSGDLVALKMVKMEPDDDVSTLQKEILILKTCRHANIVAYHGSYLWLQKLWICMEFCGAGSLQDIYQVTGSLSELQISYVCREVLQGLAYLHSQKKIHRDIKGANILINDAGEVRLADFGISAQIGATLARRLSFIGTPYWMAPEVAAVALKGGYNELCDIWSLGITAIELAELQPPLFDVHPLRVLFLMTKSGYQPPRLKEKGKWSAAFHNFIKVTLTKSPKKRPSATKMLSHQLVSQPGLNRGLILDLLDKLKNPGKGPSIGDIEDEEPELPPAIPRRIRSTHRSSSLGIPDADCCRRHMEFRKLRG
Method: HPK1 Kinase Activity Assay at 1 mM ATP
Compounds disclosed herein were tested for inhibition of HPK1 kinase (aa1-346, Life Technologies) activity in assays based on the time-resolved fluorescence-resonance energy transfer (TR-FRET) methodology. The assays were carried out in 384-well low volume black plates in a reaction mixture containing HPK1 kinase (40 nM), 1 mM ATP, 0.5 μM STK1 substrate and 0-10 μM compound in buffer containing 50 mM HEPES, 0.01% BSA, 0.1 mM Orthovanadate, 10 mM MgCl2, 1 mM DTT, pH=7.0, 0.005% Tween-20. The kinase was incubated with the compounds disclosed herein or DMSO for 60 minutes at room temperature and the reaction was initiated by the addition of ATP and STK1 substrate. After reaction at room temperature for 120 minutes, an equal volume of stop/detection solution was added according to the manufacturer's instruction (CisBio). The stop/detection solution contained STK Antibody-Cryptate and XL665-conjugated streptavidin in Detection Buffer. The TR-FRET signals (ratio of fluorescence emission at 665 nm over emission at 620 nm with excitation at 337 nm wavelength) were recorded on a PHERAstar FS plate reader (BMG Labtech). Phosphorylation of STK1 substrate led to the binding of STK Antibody-Cryptate to the biotinylated STK1 substrate, which places fluorescent donor (Eu^3+ cryptate) in close proximity to the accepter (Streptavidin-XL665), thus resulting in a high degree of fluorescence resonance energy transfer. The inhibition of HPK1 in presence of increasing concentrations of compounds was calculated based on the ratio of fluorescence at 665 nm to that at 620 nm. The IC50 for each compound was derived from fitting the data to the four-parameter logistic equation by Graphpad Prism software.

HEK293 cells = experiment: HEK293 cell viability assay (CellTiter-Glo); format: cell-based; settings: 3-day exposure, 0 to 10 μM
Method: Cytotoxicity on HEK293 Cells Proliferation (HEK293 Cell Viability Assay)
HEK293 cell line were used in this study. Cell lines were maintained in DMEM (Dulbecco's Modified Eagle Medium) supplemented with 10% fetal bovine serum (Thermo Fisher), 50 units/mL penicillin and streptomycin (Thermo Fisher) and kept at 37° C. in a humidified atmosphere containing 5% CO2 in air. Cell lines were reinstated from frozen stocks that were laid down within 50 passages from the original cells purchased. The growth-inhibitory activity of compounds in HEK293 cells was determined using CellTiter-Glo luminescent cell viability assay (Promega). 3000 cells per well were seeded into a 96-well plate to ensure logarithmic growth for 3 days treatment period. Cells were treated with a 10-point dilution series. The final compound concentration was from 0 to 10 μM. Following a 3-day exposure to the test compounds, 30 μL of CellTiter-Glo reagent was added into 100 μL cell culture medium per well. Mixture was mixed on an orbital shaker for 2 minutes to allow cell lysis, followed by 10 minutes of incubation at room temperature to allow development and stabilization of luminescent signal, which corresponded to the quantity of ATP and thus the quantity of metabolically active cells. Luminescent signal was measured using PHERAstar FS reader (BMG Labtech). IC50 values for cell viability were determined with Dotmatics.

IC50 [1] [nM] | Compound | IC50 (HEK293 cells; Homo sapiens, HEK293, 72 h) [nM] | IC50 (HEK293 cells) [nM]
24 | Cc1cc(-c2cnc3[nH]cc(-c4ccc(C(=O)N(C)C)cc4)c3n2)cc2c1CCN(C)C2 [Example 1, 4-[2-(2,5-dimethyl-3,4-dihydro-1H-isoquinolin-7-yl)-5H-pyrrolo[2,3-b]pyrazin-7-yl]-N, N-dimethylbenzamide] | 3650 | 
26 | Cc1cc(-c2c[nH]c3ncc(-c4cc(C)c5c(c4)CN(C)CC5)nc23)ccc1C(=O)N(C)C [Example 2, 4-(2-(2,5-dimethyl-1,2,3,4-tetrahydroisoquinolin-7-yl)-5H-pyrrolo[2,3-b]pyrazin-7-yl)-N, N, 2-trimethylbenzamide] | 3340 | 
12 | COc1cc(-c2cnc3[nH]cc(-c4ccc(C(=O)N(C)C[C@H](C)O)cc4)c3n2)cc2c1CN(C)CC2 [Example 3, (S)—N-(2-hydroxypropyl)-4-(2-(8-methoxy-2-methyl-1,2,3,4-tetrahydroisoquinolin-6-yl)-5H-pyrrolo[2,3-b]pyrazin-7-yl)-N-methylbenzamide] | 1270 | 
32 | COc1cc(-c2cnc3[nH]cc(-c4ccc(C(=O)N(C)C[C@H](C)O)c(C)c4)c3n2)cc2c1CN(C)CC2 [Example 6, (S)—N-(2-hydroxypropyl)-4-(2-(8-methoxy-2-methyl-1,2,3,4-tetrahydroisoquinolin-6-yl)-5H-pyrrolo[2,3-b]pyrazin-7-yl)-N, 2-dimethylbenzamide] | 5560 | 
11 | COc1cc(-c2cnc3[nH]cc(-c4ccc(C(=O)N(C)C[C@@H](C)O)cc4)c3n2)cc2c1CN(C)CC2 [Example 10, (R)—N-(2-hydroxypropyl)-4-(2-(8-methoxy-2-methyl-1,2,3,4-tetrahydroisoquinolin-6-yl)-5H-pyrrolo[2,3-b]pyrazin-7-yl)-N-methylbenzamide] | 1420 | 
17 | COc1cc(-c2cnc3[nH]cc(-c4ccc(C(=O)N5CC6(COC6)C5)cc4)c3n2)cc2c1CN(C)CC2 [Example 15, (4-(2-(8-methoxy-2-methyl-1,2,3,4-tetrahydroisoquinolin-6-yl)-5H-pyrrolo[2,3-b]pyrazin-7-yl)phenyl) (2-oxa-6-azaspiro[3.3]heptan-6-yl)methanone] | 1040 | 
88 | Cc1cc(-c2c[nH]c3ncc(-c4cc(C)c5c(c4)CN(C)CC5)nc23)ccc1C(=O)N1CC2(COC2)C1 [Example 16, (4-(2-(2,5-dimethyl-1,2,3,4-tetrahydroisoquinolin-7-yl)-5H-pyrrolo[2,3-b]pyrazin-7-yl)-2-methylphenyl) (2-oxa-6-azaspiro[3.3]heptan-6-yl)methanone] | > 10000 | 
65 | Cc1cc(-c2cnc3[nH]cc(-c4ccc(C(=O)N(C)CC(C)(C)O)cc4)c3n2)cc2c1CCN(C)C2 [Example 20, 4-(2-(2,5-dimethyl-1,2,3,4-tetrahydroisoquinolin-7-yl)-5H-pyrrolo[2,3-b]pyrazin-7-yl)-N-(2-hydroxy-2-methylpropyl)-N-methylbenzamide] | 3870 | 
65 | Cc1cc(-c2cnc3[nH]cc(-c4ccc(C(=O)N(C)CC(C)(C)O)cc4)c3n2)cc2c1CCN(C)C2 [Example 38, 4-(2-(2,5-dimethyl-1,2,3,4-tetrahydroisoquinolin-7-yl)-5H-pyrrolo[2,3-b]pyrazin-7-yl)-N-(2-hydroxy-2-methylpropyl)-N-methylbenzamide] |  | 2190
74 | COCCCNC(=O)CN1CCc2c(C)cc(-c3cnc4[nH]cc(-c5ccc(C(=O)N(C)C)c(C)c5)c4n3)cc2C1 [Example 52, 4-(2-(2-(2-((3-methoxypropyl)amino)-2-oxoethyl)-5-methyl-1,2,3,4-tetrahydroisoquinolin-7-yl)-5H-pyrrolo[2,3-b]pyrazin-7-yl)-N, N, 2-trimethylbenzamide] |  | 
78 | Cc1cc(-c2c[nH]c3ncc(-c4cc(C)c5c(c4)CN(CCC(=O)N[C@@H]4CCCOC4)CC5)nc23)ccc1C(=O)N(C)C [Example 53, (R)—N, N, 2-trimethyl-4-(2-(5-methyl-2-(3-oxo-3-((tetrahydro-2H-pyran-3-yl)amino)propyl)-1,2,3,4-tetrahydroisoquinolin-7-yl)-5H-pyrrolo[2,3-b]pyrazin-7-yl)benzamide] |  | 
68 | Cc1cc(-c2c[nH]c3ncc(-c4cc(C)c5c(c4)CN(CCC(=O)N[C@H]4CCC[C@H]4O)CC5)nc23)ccc1C(=O)N(C)C [Example 54, 4-(2-(2-(3-(((1S, 2R)-2-hydroxycyclopentyl)amino)-3-oxopropyl)-5-methyl-1,2,3,4-tetrahydroisoquinolin-7-yl)-5H-pyrrolo[2,3-b]pyrazin-7-yl)-N, N, 2-trimethylbenzamide] |  | 
89 | Cc1cc(-c2c[nH]c3ncc(-c4cc(C)c5c(c4)CN(CCC(=O)NCC4CC4)CC5)nc23)ccc1C(=O)N(C)C [Example 55, 4-(2-(2-(3-((cyclopropylmethyl)amino)-3-oxopropyl)-5-methyl-1,2,3,4-tetrahydroisoquinolin-7-yl)-5H-pyrrolo[2,3-b]pyrazin-7-yl)-N, N, 2-trimethylbenzamide] |  | 
93 | Cc1cc(-c2c[nH]c3ncc(-c4cc(C)c5c(c4)CN(CCC(=O)N[C@H]4CC[C@H](O)C4)CC5)nc23)ccc1C(=O)N(C)C [Example 56, 4-(2-(2-(3-(((1S, 3S)-3-hydroxycyclopentyl)amino)-3-oxopropyl)-5-methyl-1,2,3,4-tetrahydroisoquinolin-7-yl)-5H-pyrrolo[2,3-b]pyrazin-7-yl)-N, N, 2-trimethylbenzamide] |  | 
14 | COc1cc(-c2cnc3[nH]cc(-c4ccc(C(=O)N(C)C[C@@H]5CCOC5)cc4)c3n2)cc2c1CN(C)CC2 [Example 57, (S)-4-(2-(8-methoxy-2-methyl-1,2,3,4-tetrahydroisoquinolin-6-yl)-5H-pyrrolo[2,3-b]pyrazin-7-yl)-N-methyl-N-((tetrahydrofuran-3-yl)methyl)benzamide] |  | 
21 | COc1cc(-c2cnc3[nH]cc(-c4ccc(C(=O)N(C)C)cc4)c3n2)cc2c1CN(CC(C)(C)O)CC2 [Example 58, 4-(2-(2-(2-hydroxy-2-methylpropyl)-8-methoxy-1,2,3,4-tetrahydroisoquinolin-6-yl)-5H-pyrrolo[2,3-b]pyrazin-7-yl)-N, N-dimethylbenzamide] |  | 
16 | Cc1cc(-c2cnc3[nH]cc(-c4ccc(C(=O)N(C)CCC#N)cc4)c3n2)cc2c1CCN(C)C2 [Example 59, N-(2-cyanoethyl)-4-(2-(2,5-dimethyl-1,2,3,4-tetrahydroisoquinolin-7-yl)-5H-pyrrolo[2,3-b]pyrazin-7-yl)-N-methylbenzamide] |  | 
71 | CN1CCc2c(cc(-c3cnc4[nH]cc(-c5ccc(C(=O)N(C)C)cc5)c4n3)cc2C(F)F)C1 [Example 95, 4-(2-(5-(difluoromethyl)-2-methyl-1,2,3,4-tetrahydroisoquinolin-7-yl)-5H-pyrrolo[2,3-b]pyrazin-7-yl)-N, N-dimethylbenzamide] | 5180 | 
43 | Cc1cc(-c2c[nH]c3ncc(-c4cc(C)c5c(c4)CCN(C)C5)nc23)ccc1C(=O)N(C)C [Example 126, 4-(2-(2,8-dimethyl-1,2,3,4-tetrahydroisoquinolin-6-yl)-5H-pyrrolo[2,3-b]pyrazin-7-yl)-N, N, 2-trimethylbenzamide] | > 10000 | 
21 | [2H]C([2H])([2H])N(C(=O)c1ccc(-c2c[nH]c3ncc(-c4cc(C)c5c(c4)CCN(C)C5)nc23)cc1C)C([2H])([2H])[2H] [Example 128, 4-(2-(2,8-dimethyl-1,2,3,4-tetrahydroisoquinolin-6-yl)-5H-pyrrolo[2,3-b]pyrazin-7-yl)-2-methyl-N,N-bis(methyl-d3)benzamide] |  | 
